Experimental findings from patent US11136313B2, “Compounds, compositions, and methods for modulating CFTR” (Proteostasis Therapeutics, Inc., priority 2015, dated 2021) are described below.

T1 sequence (P13569 with tags, fused parts or gaps DEL508-508): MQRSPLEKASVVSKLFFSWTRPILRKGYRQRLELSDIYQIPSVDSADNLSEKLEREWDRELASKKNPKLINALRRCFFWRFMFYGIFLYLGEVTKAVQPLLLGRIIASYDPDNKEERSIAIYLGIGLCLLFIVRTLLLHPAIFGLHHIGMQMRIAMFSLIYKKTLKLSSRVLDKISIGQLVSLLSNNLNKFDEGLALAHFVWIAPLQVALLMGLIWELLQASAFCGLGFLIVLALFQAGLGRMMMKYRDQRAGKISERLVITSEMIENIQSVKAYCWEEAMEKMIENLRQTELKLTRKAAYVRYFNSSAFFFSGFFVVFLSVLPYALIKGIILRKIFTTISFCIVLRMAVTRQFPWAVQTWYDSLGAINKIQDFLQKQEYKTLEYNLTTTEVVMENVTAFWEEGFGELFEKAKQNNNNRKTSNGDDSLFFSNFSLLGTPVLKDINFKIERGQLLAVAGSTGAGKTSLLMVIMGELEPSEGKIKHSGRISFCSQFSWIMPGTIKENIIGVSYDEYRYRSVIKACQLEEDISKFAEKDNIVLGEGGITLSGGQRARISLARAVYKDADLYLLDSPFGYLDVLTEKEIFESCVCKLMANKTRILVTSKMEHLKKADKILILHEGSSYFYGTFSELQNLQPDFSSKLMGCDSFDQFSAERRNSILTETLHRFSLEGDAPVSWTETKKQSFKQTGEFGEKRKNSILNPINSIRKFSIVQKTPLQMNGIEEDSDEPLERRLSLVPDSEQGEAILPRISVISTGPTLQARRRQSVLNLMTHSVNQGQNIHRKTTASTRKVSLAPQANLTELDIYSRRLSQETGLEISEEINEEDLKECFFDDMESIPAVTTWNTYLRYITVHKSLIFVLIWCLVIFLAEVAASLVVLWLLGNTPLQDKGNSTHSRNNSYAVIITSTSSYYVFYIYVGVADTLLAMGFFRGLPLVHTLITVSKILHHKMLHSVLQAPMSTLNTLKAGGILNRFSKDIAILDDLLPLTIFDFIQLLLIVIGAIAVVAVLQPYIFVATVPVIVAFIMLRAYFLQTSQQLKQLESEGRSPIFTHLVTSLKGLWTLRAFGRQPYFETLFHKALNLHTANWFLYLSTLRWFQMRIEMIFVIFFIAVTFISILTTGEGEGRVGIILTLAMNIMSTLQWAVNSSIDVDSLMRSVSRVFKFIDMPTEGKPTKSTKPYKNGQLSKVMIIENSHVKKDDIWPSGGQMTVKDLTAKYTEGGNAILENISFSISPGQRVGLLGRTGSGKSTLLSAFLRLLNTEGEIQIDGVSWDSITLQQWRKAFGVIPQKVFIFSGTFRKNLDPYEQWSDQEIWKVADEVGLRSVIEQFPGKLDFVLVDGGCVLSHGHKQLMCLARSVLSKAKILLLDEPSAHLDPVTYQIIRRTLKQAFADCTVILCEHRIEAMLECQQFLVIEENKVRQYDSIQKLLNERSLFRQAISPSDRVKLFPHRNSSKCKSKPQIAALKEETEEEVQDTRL

The assay addresses T1, ΔF508-CFTR (Homo sapiens, UniProt P13569, DEL508-508).
T1 construct: Primary lung epithelial cells homozygous for the Cystic Fibrosis-causing ΔF508 mutation were differentiated for a minimum of 4 weeks; endogenous in cells; host or cells: primary lung epithelial cells (hBE) homozygous for ΔF508, differentiated at an air-liquid interface
The experiment in a line: hBE equivalent current (Ieq) assay: AUC of equivalent chloride current after forskolin/VX-770 in primary lung epithelial cells homozygous for ΔF508. To be noted: relative to CFTR amplifier (Compound A)+VX-809 (3 uM), compound at 10 uM and Compound A at 3 uM, 24 h treatment. In kind it is cell-based. A digest of the protocol: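 Readout is the increase over vehicle in equivalent chloride current AUC from forskolin/VX-770 addition to bumetanide, measured by current clamp at 36 °C after benzamil block of ENaC. Cultures were homozygous ΔF508 primary lung epithelium grown ≥4 weeks at air-liquid interface and exposed basolaterally to compound for 24 h.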
Take `Cc1c(-c2cc(C(=O)O)c3c(OC4CCCc5ccccc54)ccc(C)c3n2)oc2ccccc12` (stereo not shown) [Compound 335]: the Activity result was “++ (activity>50% of CFTR amplifier+VX-809 (3 uM) with compound at 10 uM and Compound A at 3 uM)”.

Consider `Cc1c(-c2cc(C(=O)[O-])c3c(O[C@H]4CCc5ccccc5C4)ccc(C)c3n2)oc2ccccc12.[Na+]` [Compound 253], for which the Activity result is “++ (activity>50% of CFTR amplifier+VX-809 (3 uM) with compound at 10 uM and Compound A at 3 uM)”.

For `Cc1c(-c2cc(C(=O)O)c3c(C)ccc(OCc4ccccc4)c3n2)oc2ccccc12` [Compound 40, 8-(Benzyloxy)-5-methyl-2-(3-methyl-1-benzofuran-2-yl)quinoline-4-carboxylic acid], the Activity result is “+ (activity<50% of an CFTR amplifier (Compound A)+VX-809 (3 uM) with compound at 10 uM and Compound A at 3 uM)”.

As to `Cc1c(-c2cc(C(=O)O)c3cc(C4CC4)cc(C)c3n2)oc2ccccc12` [Compound 28, 6-Cyclopropyl-8-methyl-2-(3-methyl-1-benzofuran-2-yl)quinoline-4-carboxylic Acid], the Activity result is “++ (activity>50% of CFTR amplifier+VX-809 (3 uM) with compound at 10 uM and Compound A at 3 uM)”.

On to `Cc1c(-c2cc(C(=O)[O-])c3c(OC4CC(C)(C)C4)ccc(C)c3n2)sc2ccccc12.[Na+]` [Compound 318], for which the Activity result is “++ (activity>50% of CFTR amplifier+VX-809 (3 uM) with compound at 10 uM and Compound A at 3 uM)”.

Consider `Cc1c(-c2cc(C(=O)O)c3c(OCc4ccccc4)ccc(C#N)c3n2)oc2ccccc12` [Compound 112, 5-(benzyloxy)-8-cyano-2-(3-methyl-1-benzofuran-2-yl)quinoline-4-carboxylic Acid], for which the Activity result was “++ (activity>50% of CFTR amplifier+VX-809 (3 uM) with compound at 10 uM and Compound A at 3 uM)”.

On to `Cc1c(-c2cc(C(=O)[O-])c3c(OCc4ccccc4F)ccc(C)c3n2)sc2ccccc12.[Na+]` [Compound 289, Sodium 5-[(2-Fluorophenyl)methoxy]-8-methyl-2-(3-methyl-1-benzothiophen-2-yl)quinoline-4-carboxylate], for which the Activity entry is “++ (activity>50% of CFTR amplifier+VX-809 (3 uM) with compound at 10 uM and Compound A at 3 uM)”.

Consider `Cc1ccc(O[C@@H](C)c2ccccc2)c2c(C(=O)[O-])cc(-c3cc4ccccn4n3)nc12.[Na+]` [Compound 209], for which the Activity result is “+ (activity<50% of an CFTR amplifier (Compound A)+VX-809 (3 uM) with compound at 10 uM and Compound A at 3 uM)”.

In the case of `Cc1c(-c2cc(C(=O)[O-])c3c(OC4CC(C)C4)ccc(C)c3n2)sc2ccccc12.[Na+]` (stereo not shown) [Compound 277, Sodium 8-Methyl-2-(3-methyl-1-benzothiophen-2-yl)-5-(3-methylcyclobutoxy)quinoline-4-carboxylate], the Activity result is “++ (activity>50% of CFTR amplifier+VX-809 (3 uM) with compound at 10 uM and Compound A at 3 uM)”.

`Cc1c(-c2cc(C(=O)[O-])c3c(O[C@H](CO)c4ccccc4)ccc(C)c3n2)sc2ccccc12.[Na+]` [Compound 307]: the Activity result was “++ (activity>50% of CFTR amplifier+VX-809 (3 uM) with compound at 10 uM and Compound A at 3 uM)”.

For `Cc1ccc(O[C@H](C)c2ccccc2)c2c(C(=O)[O-])cc(-c3cc4ccccn4n3)nc12.[Na+]` [Compound 208], the Activity result was “++ (activity>50% of CFTR amplifier+VX-809 (3 uM) with compound at 10 uM and Compound A at 3 uM)”.

For `Cc1c(-c2cc(C(=O)O)c3cc(OCC(F)F)cc(C)c3n2)oc2ccccc12` [Compound 119, 6-(2,2-Difluoroethoxy)-8-methyl-2-(3-methyl-1-benzofuran-2-yl)quinoline-4-carboxylic acid], the Activity result is “+ (activity<50% of an CFTR amplifier (Compound A)+VX-809 (3 uM) with compound at 10 uM and Compound A at 3 uM)”.

Regarding `Cc1c(-c2cc(C(=O)[O-])c3c(OC[C@H]4C[C@](C)(O)C4)ccc(C)c3n2)oc2ccccc12.[Na+]` [Compound 375], the Activity result is “++ (activity>50% of CFTR amplifier+VX-809 (3 uM) with compound at 10 uM and Compound A at 3 uM)”.

With `CCc1ccc(OC2CCCCC2)c2c(C(=O)O)cc(-c3csc4ccccc34)nc12` [Compound 159, 2-(1-Benzothiophen-3-yl)-5-(cyclohexyloxy)-8-ethylquinoline-4-carboxylic acid], the Activity entry is “++ (activity>50% of CFTR amplifier+VX-809 (3 uM) with compound at 10 uM and Compound A at 3 uM)”.

On to `CCc1ccc(OCc2ccc(S(C)(=O)=O)cc2)c2c(C(=O)O)cc(-c3oc4ccccc4c3C)nc12` [Compound 145, 8-Ethyl-5-[(4-methanesulfonylphenyl)methoxy]-2-(3-methyl-1-benzofuran-2-yl)quinoline-4-carboxylic acid], for which the Activity entry is “++ (activity>50% of CFTR amplifier+VX-809 (3 uM) with compound at 10 uM and Compound A at 3 uM)”.

As to `CCc1ccc(OCc2ccc(-c3cccnc3)cc2)c2c(C(=O)O)cc(-c3csc4ccccc34)nc12` [Compound 195], the Activity entry is “++ (activity>50% of CFTR amplifier+VX-809 (3 uM) with compound at 10 uM and Compound A at 3 uM)”.

Take `CCc1ccc(OCc2ccccc2)c2c(C(=O)O)cc(-c3c(C)oc4ccccc34)nc12` [Compound 175]: the Activity entry was “++ (activity>50% of CFTR amplifier+VX-809 (3 uM) with compound at 10 uM and Compound A at 3 uM)”.

Take `Cc1c(-c2cc(CC(=O)O)c3c(OC(C)c4ccccc4)ccc(C)c3n2)oc2ccccc12` (stereo not shown) [Compound 276, 2-[8-Methyl-2-(3-methyl-1-benzofuran-2-yl)-5-(1-phenylethoxy)quinolin-4-yl]acetic Acid]: the Activity result was “++ (activity>50% of CFTR amplifier+VX-809 (3 uM) with compound at 10 uM and Compound A at 3 uM)”.

Turning to `Cc1oc2ccccc2c1-c1cc(C(=O)O)c2c(OCC(F)F)ccc(C)c2n1` [Compound 124, 5-(2,2-Difluoroethoxy)-8-methyl-2-(2-methyl-1-benzofuran-3-yl)quinoline-4-carboxylic acid], the Activity entry is “+ (activity<50% of an CFTR amplifier (Compound A)+VX-809 (3 uM) with compound at 10 uM and Compound A at 3 uM)”.

In the case of `COCC[C@H](Oc1ccc(C)c2nc(-c3sc4ccccc4c3C)cc(C(=O)[O-])c12)c1ccccc1.[Na+]` [Compound 312], the Activity result was “++ (activity>50% of CFTR amplifier+VX-809 (3 uM) with compound at 10 uM and Compound A at 3 uM)”.

For `Cc1c(-c2cc(C(=O)[O-])c3c(OCC4CCC5(CC4)COC5)ccc(C)c3n2)oc2ccccc12.[Na+]` [Compound 367], the Activity result was “++ (activity>50% of CFTR amplifier+VX-809 (3 uM) with compound at 10 uM and Compound A at 3 uM)”.

Regarding `CCc1ccc(COc2ccccc2)c2c(C(=O)O)cc(-c3csc4ccccc34)nc12` [Compound 180], the Activity entry is “++ (activity>50% of CFTR amplifier+VX-809 (3 uM) with compound at 10 uM and Compound A at 3 uM)”.

With `Cc1c(-c2cc(C(=O)O)c3c(OC(C)c4ccc5nccn5c4)ccc(C)c3n2)oc2ccccc12` (stereo not shown) [Compound 347], the Activity result is “+ (activity<50% of an CFTR amplifier (Compound A)+VX-809 (3 uM) with compound at 10 uM and Compound A at 3 uM)”.

On to `CCc1ccc(O[C@@H]2CCC[C@H](C)C2)c2c(C(=O)[O-])cc(-c3sc4ccccc4c3C)nc12.[Na+]` [Compound 214, Sodium 8-Ethyl-2-(3-methyl-1-benzothiophen-2-yl)-5-[[(1R,3S)-3-methylcyclohexyl]oxy]quinoline-4-carboxylate], for which the Activity result is “++ (activity>50% of CFTR amplifier+VX-809 (3 uM) with compound at 10 uM and Compound A at 3 uM)”.

`CCc1ccc([S+]([O-])C2CCCCC2)c2c(C(=O)[O-])cc(-c3sc4ccccc4c3C)nc12.[Na+]` (stereo not shown) [Compound 140, Sodium 5-(Cyclohexanesulfinyl)-8-ethyl-2-(3-methyl-1-benzothiophen-2-yl)quinoline-4-carboxylate]: the Activity entry is “++ (activity>50% of CFTR amplifier+VX-809 (3 uM) with compound at 10 uM and Compound A at 3 uM)”.

`Cc1c(-c2cc(C(=O)[O-])c3c(O[C@H](C)c4ccc(S(N)(=O)=O)cc4)ccc(C)c3n2)oc2ccccc12.[Na+]` [Compound 237, Sodium 8-Methyl-2-(3-methyl-1-benzofuran-2-yl)-5-[(1R)-1-(4-sulfamoylphenyl)ethoxy]quinoline-4-carboxylate]: the Activity entry is “+ (activity<50% of an CFTR amplifier (Compound A)+VX-809 (3 uM) with compound at 10 uM and Compound A at 3 uM)”.

On to `Cc1c(-c2cc(C(=O)O)c3c(C)ccc(C)c3n2)oc2c(C)cccc12` [Compound 125, 2-(3,7-Dimethyl-1-benzofuran-2-yl)-5,8-dimethylquinoline-4-carboxylic acid], for which the Activity entry is “++ (activity>50% of CFTR amplifier+VX-809 (3 uM) with compound at 10 uM and Compound A at 3 uM)”.

On to `Cc1cc(C)c2nc(-c3oc4ccccc4c3C)cc(CO)c2c1` [Compound 29, [6,8-Dimethyl-2-(3-methyl-1-benzofuran-2-yl)quinolin-4-yl]methanol], for which the Activity entry was “+ (activity<50% of an CFTR amplifier (Compound A)+VX-809 (3 uM) with compound at 10 uM and Compound A at 3 uM)”.

Take `CCc1ccc(OCc2ccccc2)c2c(C(=O)O)cc(-c3[nH]c4ccccc4c3C)nc12` [Compound 146, 5-(Benzyloxy)-8-ethyl-2-(3-methyl-1H-indol-2-yl)quinoline-4-carboxylic acid]: the Activity entry is “++ (activity>50% of CFTR amplifier+VX-809 (3 uM) with compound at 10 uM and Compound A at 3 uM)”.

Turning to `Cc1c(-c2cc(C(=O)[O-])c3c(OC[C@H]4C[C@](C)(O)C4)ccc(C)c3n2)sc2ccccc12.[Na+]` [Compound 321], the Activity result is “++ (activity>50% of CFTR amplifier+VX-809 (3 uM) with compound at 10 uM and Compound A at 3 uM)”.

As for `Cc1c(-c2cc(C(=O)[O-])c3c(O[C@@H](CO)c4ccccc4)ccc(C)c3n2)sc2ccccc12.[Na+]` [Compound 306], the Activity result was “++ (activity>50% of CFTR amplifier+VX-809 (3 uM) with compound at 10 uM and Compound A at 3 uM)”.
